In patent US20140088102A1, “(ALPHA-SUBSTITUTED CYCLOALKYLAMINO AND HETEROCYCLYLAMINO) PYRIMIDINYL AND 1,3,5-TRIAZINYL BENZIMIDAZOLES, PHARMACEUTICAL COMPOSITIONS THEREOF, AND THEIR USE IN TREATING PROLIFERATIVE DISEASES” (MEI PHARMA, INC., priority 2011, published 2014):

Assays:
Format in all cases: biochemical
p110α = molecular target: T1, p110α (Homo sapiens, UniProt P42336); experiment: Luciferase-based luminescence assay (Kinase GLO), PI3K alpha; conditions: 1.65 nM enzyme, 50 μM PIP2, 25 μM ATP, 1 hour
T1 construct: purchased Invitrogen Corp., Carlsbad, Calif., USA
T1 sequence (P42336 whole entry): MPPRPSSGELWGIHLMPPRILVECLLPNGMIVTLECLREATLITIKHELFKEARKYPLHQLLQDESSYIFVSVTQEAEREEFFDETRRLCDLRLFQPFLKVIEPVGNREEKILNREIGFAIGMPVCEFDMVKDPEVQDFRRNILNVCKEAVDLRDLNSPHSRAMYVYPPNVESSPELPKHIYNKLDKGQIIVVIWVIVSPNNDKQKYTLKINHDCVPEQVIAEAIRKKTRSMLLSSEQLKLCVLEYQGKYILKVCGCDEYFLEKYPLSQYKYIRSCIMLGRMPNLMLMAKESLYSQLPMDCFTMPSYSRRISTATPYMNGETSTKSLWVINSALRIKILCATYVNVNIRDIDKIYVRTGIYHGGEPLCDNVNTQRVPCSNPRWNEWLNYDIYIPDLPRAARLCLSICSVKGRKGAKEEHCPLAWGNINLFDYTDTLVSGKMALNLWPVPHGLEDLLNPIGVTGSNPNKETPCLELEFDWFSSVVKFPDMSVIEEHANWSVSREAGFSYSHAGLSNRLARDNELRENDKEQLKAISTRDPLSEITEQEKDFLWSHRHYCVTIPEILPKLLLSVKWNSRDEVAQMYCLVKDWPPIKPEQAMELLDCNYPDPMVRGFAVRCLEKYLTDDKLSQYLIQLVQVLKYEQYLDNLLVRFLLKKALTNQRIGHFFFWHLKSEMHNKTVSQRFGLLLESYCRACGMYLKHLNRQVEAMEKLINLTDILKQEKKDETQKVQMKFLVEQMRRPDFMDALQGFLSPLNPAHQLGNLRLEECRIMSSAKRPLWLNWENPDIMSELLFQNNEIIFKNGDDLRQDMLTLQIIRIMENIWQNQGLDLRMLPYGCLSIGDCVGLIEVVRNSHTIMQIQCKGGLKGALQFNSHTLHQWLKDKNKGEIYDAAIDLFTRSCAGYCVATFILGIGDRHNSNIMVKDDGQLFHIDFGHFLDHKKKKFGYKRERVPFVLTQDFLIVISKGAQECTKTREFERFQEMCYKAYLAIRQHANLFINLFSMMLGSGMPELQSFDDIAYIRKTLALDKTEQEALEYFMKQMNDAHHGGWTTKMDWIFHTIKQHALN
T1 sequence (P27986 whole entry partner): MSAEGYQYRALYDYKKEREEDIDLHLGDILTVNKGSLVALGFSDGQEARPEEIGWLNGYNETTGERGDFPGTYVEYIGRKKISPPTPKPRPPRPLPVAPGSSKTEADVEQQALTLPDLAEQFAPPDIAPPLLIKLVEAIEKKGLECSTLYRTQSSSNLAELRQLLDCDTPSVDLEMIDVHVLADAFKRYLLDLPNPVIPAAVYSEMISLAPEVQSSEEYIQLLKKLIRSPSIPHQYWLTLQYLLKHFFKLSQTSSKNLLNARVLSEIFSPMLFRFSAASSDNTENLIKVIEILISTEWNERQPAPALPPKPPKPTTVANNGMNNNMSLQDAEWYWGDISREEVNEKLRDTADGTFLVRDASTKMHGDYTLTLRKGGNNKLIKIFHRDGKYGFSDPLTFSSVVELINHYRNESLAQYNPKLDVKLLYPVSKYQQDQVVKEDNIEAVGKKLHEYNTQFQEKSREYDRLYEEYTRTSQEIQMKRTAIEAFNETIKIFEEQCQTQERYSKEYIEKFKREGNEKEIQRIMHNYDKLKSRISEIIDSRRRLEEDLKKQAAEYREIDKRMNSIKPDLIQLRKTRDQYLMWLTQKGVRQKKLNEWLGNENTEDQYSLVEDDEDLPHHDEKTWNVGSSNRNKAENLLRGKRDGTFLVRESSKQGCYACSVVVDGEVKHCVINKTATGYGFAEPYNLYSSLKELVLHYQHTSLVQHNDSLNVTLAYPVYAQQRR
Procedure: (§1) PI3K catalyzes the conversion of phosphatidylinositol-4,5-bisphosphate (PIP2) and ATP to phosphatidylinositol-3,4,5-trisphosphate (PIP3) and ADP. PI3K enzymatic activity was determined by measuring the amount of ATP consumed following the kinase reaction using a luciferase-based luminescence assay (Kinase GLO®, Promega Corp., Madison, Wis., USA) in a reaction buffer. The reaction buffer contained 50 mM HEPES, pH 7.5, 3 mM MgCl2, 1 mM EGTA, 100 mM NaCl, 0.03% CHAPS, and 2 mM DTT. Compounds for testing were dissolved and serially diluted in 100% DMSO (total of 10 concentrations), and then diluted 1:25 in the reaction buffer. PI3K enzyme solutions were prepared by diluting PI3K alpha (Invitrogen Corp., Carlsbad, Calif., USA) or PI3K delta (Millipore, Billerica, Mass., USA) in the reaction buffer to 4× the final assay concentration. The final concentrations of enzymes were 1.65 nM and 6.86 nM for PI3K alpha and PI3K delta, respectively. A substrate solution was prepared by mixing PIP2 and ATP in reaction buffer at 2× the final assay concentration. The final concentrations were 50 μM and 25 μM for PIP2 and ATP, respectively. To individual wells of white low volume 384-well assay plates were added 2.5 μl each of the compound and kinase mixtures, followed by shaking. The reactions were started by adding 5 μl of substrate mixture per well and shaking. The assay plates were covered and reactions were allowed to proceed for 1 hour (PI3K alpha) or 2 hours (PI3K delta), after which 10 μl of Kinase GLO® reagent was added. The plates were briefly centrifuged and incubated for 10 minutes, after which luminescence was measured using a FlexStation plate reader (Molecular Devices, Sunnyvale, Calif., USA). IC50 values were determined by curve fitting using Graphpad Prism software (Graphpad Software, La Jolla, Calif., USA).

p110δ = molecular target: T2, p110δ (Homo sapiens, UniProt O00329); experiment: Luciferase-based luminescence assay (Kinase GLO), PI3K delta; conditions: for IC50: 6.86 nM enzyme, 50 μM PIP2, 25 μM ATP, 2 hours; for α/δ ratio: ratio of IC50 against PI3Kα over IC50 against PI3Kδ
T2 construct: purchased Millipore, Billerica, Mass., USA
T2 sequence (O00329 whole entry): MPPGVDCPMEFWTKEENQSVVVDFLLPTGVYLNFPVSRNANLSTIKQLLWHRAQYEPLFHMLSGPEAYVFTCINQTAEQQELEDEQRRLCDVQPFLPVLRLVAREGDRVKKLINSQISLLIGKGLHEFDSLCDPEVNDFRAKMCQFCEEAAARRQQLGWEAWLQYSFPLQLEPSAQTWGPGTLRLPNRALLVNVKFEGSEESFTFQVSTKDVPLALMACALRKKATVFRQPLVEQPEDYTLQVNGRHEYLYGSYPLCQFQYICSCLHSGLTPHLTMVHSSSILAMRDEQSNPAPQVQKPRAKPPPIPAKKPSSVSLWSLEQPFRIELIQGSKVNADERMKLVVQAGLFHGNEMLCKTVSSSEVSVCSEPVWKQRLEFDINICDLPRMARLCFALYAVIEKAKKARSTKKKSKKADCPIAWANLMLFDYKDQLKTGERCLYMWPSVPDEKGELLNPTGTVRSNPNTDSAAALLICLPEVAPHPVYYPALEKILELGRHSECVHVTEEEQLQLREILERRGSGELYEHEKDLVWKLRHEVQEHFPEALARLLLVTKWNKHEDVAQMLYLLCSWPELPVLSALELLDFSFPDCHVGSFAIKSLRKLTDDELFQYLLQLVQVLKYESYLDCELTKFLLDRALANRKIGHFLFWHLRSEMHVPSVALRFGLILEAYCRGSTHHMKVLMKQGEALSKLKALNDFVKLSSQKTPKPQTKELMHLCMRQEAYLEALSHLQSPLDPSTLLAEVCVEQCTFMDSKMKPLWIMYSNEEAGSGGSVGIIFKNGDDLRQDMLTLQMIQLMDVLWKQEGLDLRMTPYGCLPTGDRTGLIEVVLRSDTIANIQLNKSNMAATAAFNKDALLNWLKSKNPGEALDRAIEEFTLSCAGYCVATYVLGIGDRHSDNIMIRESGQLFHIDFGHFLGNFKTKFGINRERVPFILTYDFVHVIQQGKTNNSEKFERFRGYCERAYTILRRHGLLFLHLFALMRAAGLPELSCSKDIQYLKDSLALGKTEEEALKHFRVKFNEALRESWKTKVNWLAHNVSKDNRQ
T2 sequence (P27986 whole entry partner): as the sequence (P27986 whole entry partner) above
Procedure: as §1

p110β = p110β (Homo sapiens, UniProt P42338); experiment: Luciferase-based luminescence assay, p110β
Chain of p110β (P42338 whole entry, species assumed): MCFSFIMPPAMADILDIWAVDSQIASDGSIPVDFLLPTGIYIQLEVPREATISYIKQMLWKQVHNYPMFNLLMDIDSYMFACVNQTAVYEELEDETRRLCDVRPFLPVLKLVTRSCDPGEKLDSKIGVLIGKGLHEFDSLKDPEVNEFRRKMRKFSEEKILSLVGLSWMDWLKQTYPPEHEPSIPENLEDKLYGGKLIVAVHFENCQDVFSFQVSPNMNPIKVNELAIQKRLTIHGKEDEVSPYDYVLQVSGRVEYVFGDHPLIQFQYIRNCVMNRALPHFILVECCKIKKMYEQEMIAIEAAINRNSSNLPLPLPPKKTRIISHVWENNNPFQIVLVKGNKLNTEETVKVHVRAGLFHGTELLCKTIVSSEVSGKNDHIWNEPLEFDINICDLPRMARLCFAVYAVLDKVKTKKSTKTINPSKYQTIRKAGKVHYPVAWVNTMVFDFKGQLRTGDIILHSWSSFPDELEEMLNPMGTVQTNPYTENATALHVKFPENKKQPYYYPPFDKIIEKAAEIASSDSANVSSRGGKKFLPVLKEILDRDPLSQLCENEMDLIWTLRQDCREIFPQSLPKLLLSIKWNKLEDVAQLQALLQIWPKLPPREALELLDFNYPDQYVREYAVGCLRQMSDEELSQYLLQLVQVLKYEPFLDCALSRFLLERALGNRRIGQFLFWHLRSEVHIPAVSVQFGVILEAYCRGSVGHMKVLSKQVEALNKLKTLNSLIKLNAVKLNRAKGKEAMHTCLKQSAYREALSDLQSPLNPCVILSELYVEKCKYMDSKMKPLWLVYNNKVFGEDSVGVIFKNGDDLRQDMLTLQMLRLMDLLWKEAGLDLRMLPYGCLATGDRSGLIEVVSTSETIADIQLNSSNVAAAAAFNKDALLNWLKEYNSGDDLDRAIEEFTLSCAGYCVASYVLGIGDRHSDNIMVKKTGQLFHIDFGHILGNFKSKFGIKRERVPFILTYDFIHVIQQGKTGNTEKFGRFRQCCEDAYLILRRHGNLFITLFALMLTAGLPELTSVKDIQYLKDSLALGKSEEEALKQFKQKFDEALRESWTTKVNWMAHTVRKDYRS
Chain of p110β (P27986 whole entry partner, species assumed): as the sequence (P27986 whole entry partner) above

mTOR = mTOR (Homo sapiens, UniProt P42345); experiment: Luciferase-based luminescence assay, mTOR
p110γ = p110γ (Homo sapiens, UniProt P48736); experiment: Luciferase-based luminescence assay, p110γ
Chain of p110γ (P48736 whole entry, species assumed): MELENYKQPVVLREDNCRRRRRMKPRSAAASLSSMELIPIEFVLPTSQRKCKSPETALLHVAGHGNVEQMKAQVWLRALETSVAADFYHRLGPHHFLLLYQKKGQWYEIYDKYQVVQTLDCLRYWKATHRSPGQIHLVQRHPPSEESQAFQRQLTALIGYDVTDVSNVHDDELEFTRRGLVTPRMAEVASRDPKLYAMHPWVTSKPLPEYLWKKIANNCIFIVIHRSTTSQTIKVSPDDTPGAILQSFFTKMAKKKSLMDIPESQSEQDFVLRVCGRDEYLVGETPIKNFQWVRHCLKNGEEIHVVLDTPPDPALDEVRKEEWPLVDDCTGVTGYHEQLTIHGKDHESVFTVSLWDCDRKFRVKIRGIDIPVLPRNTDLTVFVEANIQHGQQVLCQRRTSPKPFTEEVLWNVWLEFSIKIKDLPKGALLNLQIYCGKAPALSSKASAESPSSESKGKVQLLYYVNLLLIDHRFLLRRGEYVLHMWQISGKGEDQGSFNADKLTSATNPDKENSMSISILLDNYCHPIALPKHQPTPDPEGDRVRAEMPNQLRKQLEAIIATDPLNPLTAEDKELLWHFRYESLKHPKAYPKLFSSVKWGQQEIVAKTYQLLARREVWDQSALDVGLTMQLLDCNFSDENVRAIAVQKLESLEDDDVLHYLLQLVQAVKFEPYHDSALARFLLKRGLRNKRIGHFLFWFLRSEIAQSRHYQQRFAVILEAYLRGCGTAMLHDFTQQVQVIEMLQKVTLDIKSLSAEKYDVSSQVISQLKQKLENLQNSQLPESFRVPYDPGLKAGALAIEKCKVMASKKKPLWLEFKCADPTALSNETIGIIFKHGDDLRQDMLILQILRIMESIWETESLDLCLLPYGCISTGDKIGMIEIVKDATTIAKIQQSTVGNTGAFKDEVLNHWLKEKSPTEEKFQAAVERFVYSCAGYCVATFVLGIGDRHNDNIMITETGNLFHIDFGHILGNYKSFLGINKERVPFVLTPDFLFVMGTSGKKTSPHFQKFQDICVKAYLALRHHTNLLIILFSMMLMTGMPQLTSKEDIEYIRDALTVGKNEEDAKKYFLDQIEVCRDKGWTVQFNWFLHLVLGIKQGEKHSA

Row | Compound | IC50 (p110α) [nM] | IC50 (p110δ) [nM] | α/δ ratio (p110δ) | IC50 (p110β) [nM] | IC50 (mTOR) [nM] | IC50 (p110γ) [nM]
1 | FC(F)c1nc2ccccc2n1-c1nc(NC2(c3ccccc3)CC2)nc(N2CCOCC2)n1 [Compound A1, 4-(2-(difluoromethyl)-1H-benzo[d]imidazol-1-yl)-6-morpholino-N-(1-phenylcyclopropyl)-1,3,5-triazin-2-amine] | 200 to 500 | ≤ 100 | B′ (B′ represents a ratio of no less than 4 but no greater than 8) |  |  | 
2 | FC(F)c1nc2ccccc2n1-c1nc(NC2(c3ccccc3)CCCC2)nc(N2CCOCC2)n1 [Compound A3, 4-(2-(difluoromethyl)-1H-benzo[d]imidazol-1-yl)-6-morpholino-N-(1-phenylcyclopentyl)-1,3,5-triazin-2-amine] | > 500 | > 500 | A′ (A′ represents a ratio of greater than 8) |  |  | 
3 | FC(F)c1nc2ccccc2n1-c1nc(NC2(c3ccccc3)CCCCC2)nc(N2CCOCC2)n1 [Compound A4, 4-(2-(difluoromethyl)-1H-benzo[d]imidazol-1-yl)-6-morpholino-N-(1-phenylcyclohexyl)-1,3,5-triazin-2-amine] | > 500 | 200 to 500 | A′ (A′ represents a ratio of greater than 8) |  |  | 
4 | FC(F)c1nc2ccccc2n1-c1nc(NC2(Cc3ccccc3)CC2)nc(N2CCOCC2)n1 [Compound A5, N-(1-benzylcyclopropyl)-4-(2-(difluoromethyl)-1H-benzo[d]imidazol-1-yl)-6-morpholino-1,3,5-triazin-2-amine] | > 500 | ≤ 100 | A′ (A′ represents a ratio of greater than 8) | > 500 | > 500 | > 500
5 | FC(F)c1nc2ccccc2n1-c1nc(NC2(Cc3ccc(Br)cc3)CCCCC2)nc(N2CCOCC2)n1 [Compound A6, N-(1-(4-bromobenzyl)cyclohexyl)-4-(2-(difluoromethyl)-1H-benzo[d]imidazol-1-yl)-6-morpholino-1,3,5-triazin-2-amine] | > 500 | > 500 | B′ (B′ represents a ratio of no less than 4 but no greater than 8) | > 500 | > 500 | > 500
6 | FC(F)c1nc2ccccc2n1-c1nc(NC2(Cc3ccccc3)CCCC2)nc(N2CCOCC2)n1 [Compound A7, N-(1-benzylcyclopentyl)-4-(2-(difluoromethyl)-1H-benzo[d]imidazol-1-yl)-6-morpholino-1,3,5-triazin-2-amine] | > 500 | ≤ 100 | A′ (A′ represents a ratio of greater than 8) | 100 to 200 | > 500 | 200 to 500
7 | Cc1ccccc1CC1(Nc2nc(N3CCOCC3)nc(-n3c(C(F)F)nc4ccccc43)n2)CC1 [Compound A8, 4-(2-(difluoromethyl)-1H-benzo[d]imidazol-1-yl)-N-(1-(2-methylbenzyl)cyclopropyl)-6-morpholino-1,3,5-triazin-2-amine] | > 500 | 100 to 200 | B′ (B′ represents a ratio of no less than 4 but no greater than 8) | > 500 | > 500 | > 500
8 | FC(F)c1nc2ccccc2n1-c1nc(NC2(Cc3ccccc3Cl)CC2)nc(N2CCOCC2)n1 [Compound A10, N-(1-(2-chlorobenzyl)cyclopropyl)-4-(2-(difluoromethyl)-1H-benzo[d]imidazol-1-yl)-6-morpholino-1,3,5-triazin-2-amine] | > 500 | 200 to 500 | A′ (A′ represents a ratio of greater than 8) | > 500 | > 500 | > 500
9 | FC(F)c1nc2ccccc2n1-c1nc(NC2(Cc3ccccc3)CCC2)nc(N2CCOCC2)n1 [Compound A11, 4-(2-(difluoromethyl)-1H-benzo[d]imidazol-1-yl)-N-(1-benzylcyclobutyl)-6-morpholino-1,3,5-triazin-2-amine] | > 500 | ≤ 100 | A′ (A′ represents a ratio of greater than 8) | ≤ 100 | > 500 | 200 to 500
10 | FC(F)c1nc2ccccc2n1-c1nc(NCc2ccccc2)nc(N2CCOCC2)n1 [Ref. 1, N-benzyl-4-(2-(difluoromethyl)-1H-benzo[d]imidazol-1-yl)-6-morpholino-1,3,5-triazin-2-amine, reference compound] | 100 to 200 | 100 to 200 | D′ (D′ represents a ratio of no greater than 2) |  |  | 
